Assay results from PMC3196554 (Chemical research in toxicology, 2010).
Read-outs that look alike come from different tables or passages of the source.

Assays:
[1] = Acid hydrolysis of conjugates; type: physicochemical; conditions: 50% (v/v) glacial acetic acid or 1 N HCl, 80 °C for 8 h
[2] = test system: human liver UGTs; conditions: human liver microsomes fortified with UDPGA; cited from earlier work
[3] = for Amount in urine collected for 10 h after consumption of cooked beef: Mean ± SD of 3 independent measurements; for % Dose in urine collected for 10 h after consumption of cooked beef: metabolites as % of dose of parent MeIQx or PhIP
[4] = cited from earlier work
[5] = 14C-PhIP; cited from earlier work
[6] = test system: P450 1A2; conditions: subjects given furafylline prior to cooked beef; cited from earlier work
[7] = test system: P450 1A2; conditions: human hepatocytes pretreated with furafylline; cited from earlier work

SMILES: Cn1c(=N)n([C@@H]2O[C@H](C(=O)O)[C@@H](O)[C@H](O)[C@H]2O)c2ncc(-c3ccccc3)cc21 [PhIP-N3-Gl, N3-(ß-1-glucosidurony1)-2-amino-1-methy1-6-phenylimidazo[4,5-b]pyridine]
- Behaviour under acid hydrolysis conditions [1]: stable
- Proportion of the conjugate that underwent hydrolysis [1]: < 5%
- Amount formed relative to PhIP-N^2-Gl [2]: 10 fold
- Amount present in urine samples ([3]; urine after meat consumption, LOQ ~50 pg/mL): below the LOQ

SMILES: Cn1c(N)nc2ncc(-c3ccccc3)cc21 [PhIP, 2-amino-1-methyl-6-phenylimidazo[4,5-b]pyridine]
- pKa [4]: 5.65
- Proportion of the dose eliminated in urine within 24 h as isomeric HON-PhIP-N-glucuronide conjugates [5]: approximately 50%
- Amount in urine collected for 10 h after consumption of cooked beef ([3]; Subject S-001): 37.1 ± 3.3 ng
- % Dose in urine collected for 10 h after consumption of cooked beef ([3]; Subject S-001): 0.8 % Dose
- Amount in urine collected for 10 h after consumption of cooked beef ([3]; Subject S-003): 6.5 ± 1.1 ng
- % Dose in urine collected for 10 h after consumption of cooked beef ([3]; Subject S-003): 0.1 % Dose
- Amount in urine collected for 10 h after consumption of cooked beef ([3]; Subject S-005): 11.4 ± 0.9 ng
- % Dose in urine collected for 10 h after consumption of cooked beef ([3]; Subject S-005): 0.2 % Dose
- Amount in urine collected for 10 h after consumption of cooked beef ([3]; Subject S-008): 9.5 ± 0.6 ng
- % Dose in urine collected for 10 h after consumption of cooked beef ([3]; Subject S-008): 0.2 % Dose
- Amount in urine collected for 10 h after consumption of cooked beef ([3]; Subject S-009): 18.5 ± 1.6 ng
- % Dose in urine collected for 10 h after consumption of cooked beef ([3]; Subject S-009): 0.4 % Dose
- Amount in urine collected for 10 h after consumption of cooked beef ([3]; Subject S-012): 17.0 ± 0.7 ng
- % Dose in urine collected for 10 h after consumption of cooked beef ([3]; Subject S-012): 0.3 % Dose
- Amount in urine collected for 10 h after consumption of cooked beef ([3]; Subject S-013): 14.1 ± 1.2 ng
- % Dose in urine collected for 10 h after consumption of cooked beef ([3]; Subject S-013): 0.3 % Dose
- Amount in urine collected for 10 h after consumption of cooked beef ([3]; Subject S-014): 8.9 ± 0.6 ng
- % Dose in urine collected for 10 h after consumption of cooked beef ([3]; Subject S-014): 0.2 % Dose
- Amount in urine collected for 10 h after consumption of cooked beef ([3]; Subject S-015): 8.2 ± 1.0 ng
- % Dose in urine collected for 10 h after consumption of cooked beef ([3]; Subject S-015): 0.2 % Dose
- Amount in urine collected for 10 h after consumption of cooked beef ([3]; Subject S-020): 18.9 ± 1.6 ng
- % Dose in urine collected for 10 h after consumption of cooked beef ([3]; Subject S-020): 0.4 % Dose
- Share of elimination accounted for by P450 1A2 [6]: 70%

SMILES: Cc1nc2c([nH]1)c(=O)n(C)c(=O)n2Cc1ccco1 [furafylline]
- Inhibition of formation of 8-CH2OH-IQx, IQx-8-COOH and glucuronide conjugates of HONH-MeIQx and HONH-PhIP [7]: inhibited to a similar degree
